Columns and labels:
[1] = tested on: E. coli counts / microbial contamination in beef purge; test: Beef purge study of LAE materials (aerobic plate count); format: cell-based; conditions: 0.5 g in 10 mL beef purge
Method: About 30 mL of purge was isolated from two beef tenderloin packages and transferred to three test tubes (10 mL/tube). As set forth in Table 5 below, 0.5 g LAE HCl was added to the purge in sample 5 and 0.5 g LAE monolaurate was added to the purge in sample 6. Sample 7 was the positive control and contained no LAE derivative.
The samples were mixed using a vortex mixer and E. coli counts were determined by plating about 1.0 mL on aerobic plate count 3M Petrifilm™ plates for time 0 readings. The test tubes were then stored in a refrigerator (4° C.) and E. coli counts were determined by plating about 1.0 mL on aerobic plate count 3M Petrifilm™ at 24 and 48 hours. As set forth in Table 6, below, both LAE HCl and LAE Monolaurate eliminated over 99% of the microbial contamination at the 24 and 48 hour time points.

[2] = tested on: E. coli (strain ATCC 4157); test: Nutrient broth study of LAE materials (aerobic plate count of E. coli culture); format: cell-based; conditions: 0.5 g in 50 mL E. coli broth culture; for Aerobe Count Trial 1 CFU/g / Aerobe Count Trial 1 Log CFU/g / Aerobe Count Trial 1 Mean Log CFU/g / Aerobe Count Trial 2 CFU/g / Aerobe Count Trial 2 Log CFU/g / Aerobe Count Trial 2 Mean Log CFU/g: 45° C.; for growth of bacteria: over the 48 hour time period
Method: A culture of Difco nutrient broth (available from Weber Scientific, Hamilton, N.J., United States of America) and E. coli (strain ATCC® 4157™ KWIK STIK™, available from MicroBioLogics, Inc., St. Cloud, Minn., United States of America) was prepared by adding 1 tube of the E. coli to 400 mL of broth medium and incubating overnight at 37° C. Particularly, sample 1 was the positive control, sample 2 contained 0.5 g LAE HCl, sample 3 contained 0.5 g LAE monolaurate, and Sample 4 was the negative control.
Samples 1-4 were incubated at 45° C. and the number of E. coli counts was determined by plating about 1.0 mL of each sample onto aerobic plate count 3M Petrifilm™ plates (available from 3M Microbiology Products, St. Paul, Minn., United States of America) at 0, 24, and 48 hour time points. The experiments were conducted in duplicate.

CCCCCCCCCCCC(=O)N[C@@H](CCCN=C(N)N)C(=O)OCC.Cl [LAE HCl, ethyl n-lauroyl-L-arginate hydrochloride salt]
% Reduction ([1]; 0 hrs): 99.766%
Avg. CFU/g ([1]; 0 hrs): <1.000E+02 CFU/g
Log CFU/g Mean ([1]; 0 hrs): <2.00 Log CFU/g
% Reduction ([1]; 24 hrs at 4° C.): 99.990%
Avg. CFU/g ([1]; 24 hrs at 4° C.): <1.000E+02 CFU/g
Log CFU/g Mean ([1]; 24 hrs at 4° C.): <2.00 Log CFU/g
% Reduction ([1]; 48 hrs at 4° C.): 99.999%
Avg. CFU/g ([1]; 48 hrs at 4° C.): <1.000E+02 CFU/g
Log CFU/g Mean ([1]; 48 hrs at 4° C.): <2.00 Log CFU/g
Aerobe Count Trial 1 CFU/g ([2]; 0 hrs): 1 CFU/g
Aerobe Count Trial 1 Log CFU/g ([2]; 0 hrs): 0.00 Log CFU/g
Aerobe Count Trial 1 Mean Log CFU/g ([2]; 0 hrs): 0 Log CFU/g
Aerobe Count Trial 2 CFU/g ([2]; 0 hrs): 1 CFU/g
Aerobe Count Trial 2 Log CFU/g ([2]; 0 hrs): 0.00 Log CFU/g
Aerobe Count Trial 2 Mean Log CFU/g ([2]; 0 hrs): 0 Log CFU/g
Aerobe Count Trial 1 CFU/g ([2]; 24 hrs): 1 CFU/g
Aerobe Count Trial 1 Log CFU/g ([2]; 24 hrs): 0.00 Log CFU/g
Aerobe Count Trial 1 Mean Log CFU/g ([2]; 24 hrs): 0 Log CFU/g
Aerobe Count Trial 2 CFU/g ([2]; 24 hrs): 1 CFU/g
Aerobe Count Trial 2 Log CFU/g ([2]; 24 hrs): 0.00 Log CFU/g
Aerobe Count Trial 2 Mean Log CFU/g ([2]; 24 hrs): 0 Log CFU/g
Aerobe Count Trial 1 CFU/g ([2]; 48 hrs): 1 CFU/g
Aerobe Count Trial 1 Log CFU/g ([2]; 48 hrs): 0.00 Log CFU/g
Aerobe Count Trial 1 Mean Log CFU/g ([2]; 48 hrs): 0 Log CFU/g
Aerobe Count Trial 2 CFU/g ([2]; 48 hrs): 1 CFU/g
Aerobe Count Trial 2 Log CFU/g ([2]; 48 hrs): 0.00 Log CFU/g
Aerobe Count Trial 2 Mean Log CFU/g ([2]; 48 hrs): 0 Log CFU/g
growth of bacteria [2]: no growth of bacteria

CCCCCCCCCCCC(=O)N[C@@H](CCCNC(=N)N)C(=O)OCC.CCCCCCCCCCCC(=O)O [LAE monolaurate, ethyl n-lauroyl-L-arginate laurate complex]
% Reduction ([1]; 0 hrs): 8.798%
Avg. CFU/g ([1]; 0 hrs): 3.890E+04 CFU/g
Log CFU/g Mean ([1]; 0 hrs): 4.59 Log CFU/g
% Reduction ([1]; 24 hrs at 4° C.): 90.880%
Avg. CFU/g ([1]; 24 hrs at 4° C.): 8.913E+04 CFU/g
Log CFU/g Mean ([1]; 24 hrs at 4° C.): 4.95 Log CFU/g
% Reduction ([1]; 48 hrs at 4° C.): 99.960%
Avg. CFU/g ([1]; 48 hrs at 4° C.): 2.818E+03 CFU/g
Log CFU/g Mean ([1]; 48 hrs at 4° C.): 3.45 Log CFU/g
Aerobe Count Trial 1 CFU/g ([2]; 0 hrs): 1 CFU/g
Aerobe Count Trial 1 Log CFU/g ([2]; 0 hrs): 0.00 Log CFU/g
Aerobe Count Trial 1 Mean Log CFU/g ([2]; 0 hrs): 0 Log CFU/g
Aerobe Count Trial 2 CFU/g ([2]; 0 hrs): 1 CFU/g
Aerobe Count Trial 2 Log CFU/g ([2]; 0 hrs): 0.00 Log CFU/g
Aerobe Count Trial 2 Mean Log CFU/g ([2]; 0 hrs): 0 Log CFU/g
Aerobe Count Trial 1 CFU/g ([2]; 24 hrs): 1 CFU/g
Aerobe Count Trial 1 Log CFU/g ([2]; 24 hrs): 0.00 Log CFU/g
Aerobe Count Trial 1 Mean Log CFU/g ([2]; 24 hrs): 0 Log CFU/g
Aerobe Count Trial 2 CFU/g ([2]; 24 hrs): 1 CFU/g
Aerobe Count Trial 2 Log CFU/g ([2]; 24 hrs): 0.00 Log CFU/g
Aerobe Count Trial 2 Mean Log CFU/g ([2]; 24 hrs): 0 Log CFU/g
Aerobe Count Trial 1 CFU/g ([2]; 48 hrs): 1 CFU/g
Aerobe Count Trial 1 Log CFU/g ([2]; 48 hrs): 0.00 Log CFU/g
Aerobe Count Trial 1 Mean Log CFU/g ([2]; 48 hrs): 0 Log CFU/g
Aerobe Count Trial 2 CFU/g ([2]; 48 hrs): 1 CFU/g
Aerobe Count Trial 2 Log CFU/g ([2]; 48 hrs): 0.00 Log CFU/g
Aerobe Count Trial 2 Mean Log CFU/g ([2]; 48 hrs): 0 Log CFU/g
growth of bacteria [2]: no growth of bacteria

— US20120087968A1, “Antimicrobial Packaging Material and Methods of Making and Using the Same” (CRYOVAC, INC., priority 2010, published 2012)
